Laboratory results: patent US20230399359A1, “TETRAPEPTIDES, COMPOSITIONS COMPRISING THEM, AND THEIR COSMETIC USE” (Sederma, priority 2020, published 2023)
Residues, ends and D or L forms follow the SMILES beside them. *: point of attachment. Palmitoyl = CCCCCCCCCCCCCCCC(=O)*

Experiments:
Assay type in all cases: cell-based
Decorine = test: ELISA assay of decorin synthesis in normal human fibroblast culture supernatants; conditions: NHF, 72 h contact, vs excipient control
Experimental: (§1) Normal human fibroblasts (NHF) in culture are brought into contact with the products to be tested or their excipient (negative control) for 72 h. At the end of the contact, the culture supernatants are removed, and the syntheses of the dermal macromolecules are estimated by ELISA assays. An estimate of cell viability is carried out by Hoechst assay to weight the obtained data.

Collagen IV = test: ELISA assay of collagen IV synthesis in normal human fibroblast culture supernatants; conditions: NHF, 72 h contact, vs excipient control
Experimental: as §1

Fibronectine = test: ELISA assay of fibronectin synthesis in normal human fibroblast culture supernatants; conditions: NHF, 72 h contact, vs excipient control
Experimental: as §1

Fibrillin 1 = test: Immunofluorescence assay of Fibrillin 1 formation by normal human fibroblasts; conditions: NHF, five-day incubation, coverage density by image analysis
Experimental: Normal human fibroblasts (NHF) are cultured for at least 24 hours in fibroblast growth medium containing serum. Once confluence was reached, the cells are seeded, and the actives and corresponding controls diluted in a culture medium are added. At the end of a five-day incubation period, the supernatant is removed, the cells are washed with PBS and fixed. The cells are then incubated with the primary Fibrillin 1 monoclonal antibody (11C1.3) (Thermo Fisher) diluted in blocking buffer at a concentration of 1:200. The cells are incubated. The primary antibody is removed, and the cells are washed with PBS. The secondary antibody was added at a dilution of 1:1000 in blocking buffer, then removed and the cells are washed with PBS. The formation of Fibrillin 1 by the cells is visualized using a fluorescence microscope. The obtained images are analyzed using an image processing software assigning a numerical value to the coverage density.

Collagen I (PIP) = test: ELISA assay of collagen I synthesis (PIP assay) in normal human fibroblast culture supernatants; conditions: NHF, 72 h contact, vs excipient control, weighted by Hoechst viability
Experimental: as §1
Collagen I is evaluated via the PIP assay (carboxy-terminal propeptide of procollagen type I) which is a peptide fragment resulting from the enzymatic degradation of procollagen when the latter is excreted outside the fibroblast (therefore in the culture medium where the assay is carried out).

| Molecule | Decorine (Decorine; concentrations of 5 to 15 ppm) | Collagen IV (Collagen IV; concentrations of 5 to 15 ppm) | Fibronectine (Fibronectine; concentrations of 5 to 15 ppm) | Fibrillin 1 (significance) (Fibrillin 1; 12.5 ppm) | Collagen I (PIP) (Collagen I (PIP); concentrations of 5 to 15 ppm) | Decorine (Decorine; concentrations of 2 to 3 ppm) | Collagen IV (Collagen IV; concentrations of 2 to 3 ppm) | Fibronectine (Fibronectine; concentrations of 2 to 3 ppm) | Fibrillin 1 (significance) (Fibrillin 1; 2 ppm) | Collagen I (PIP) (Collagen I (PIP); concentrations of 2 to 3 ppm) |
| --- | --- | --- | --- | --- | --- | --- | --- | --- | --- | --- |
| CCCCCCCCCCCCCCCC(=O)N[C@@H](C)C(=O)N[C@H](C(=O)N1CCC[C@H]1C(=O)NCC(=O)O)C(C)C [Pal-AVPG-OH, palmitoyl-alanyl-valyl-prolyl-glycine] (Palmitoyl-AVPG-OH) | +20% | +35% | +38% | +121% (p < 0.05) | +94% | – | – | – | – | – |
| Pal-VPGA-OH: N-palmitoyl tetrapeptide Val-Pro-Gly-Ala with free C-terminal acid, prepared by the same synthetic process (Palmitoyl-VPGA-OH; SMILES CCCCCCCCCCCCCCCC(=O)N[C@H](C(=O)N1CCC[C@H]1C(=O)NCC(=O)N[C@@H](C)C(=O)O)C(C)C) | – | – | – | – | – | +69% | +49% | +115% | +92% (p < 0.05) | +42% |
